Legend:
DIGSA [1] = test: Post-emergence herbicidal action; format: in vivo, Digitaria sanguinalis; conditions: for Herbicidal action against DIGSA: 20 g a.i./ha, comparative experiment; for Post-emergence action against DIGSA: assessed after about 3 weeks
Protocol: (§1) Seeds of monocotyledonous and dicotyledonous weed and crop plants are laid out in sandy loam soil in wood-fibre pots, covered with soil and cultivated in a greenhouse under good growth conditions. 2 to 3 weeks after sowing, the test plants are treated at the one-leaf stage. The compounds of the invention, formulated in the form of wettable powders (WP) or as emulsion concentrates (EC), are then sprayed onto the green parts of the plants in the form of an aqueous suspension or emulsion at a water application rate equating to 600 to 800 l/ha, with addition of 0.2% wetting agent. After the test plants have been left to stand in the greenhouse under optimal growth conditions for about 3 weeks, the action of the preparations is assessed visually in comparison to untreated controls (herbicidal action in percent (%): 100% activity=the plants have died, 0% activity=like control plants). […] The tables below illustrate, in an illustrative manner, the post-emergence herbicidal action of the compounds of the invention, the herbicidal activity being stated in percent. In the experiments that follow, the herbicidal action of the compounds of the invention and that of the corresponding known racemic compounds closest from WO2012126932 and WO2018202535 were compared under the above-specified conditions by the pre-emergence and post-emergence method. The example numbers given in the tables relate to the compounds disclosed in the respective documents.

BRSNW = test: Post-emergence damage to crop plants; format: in vivo, Brassica napus; conditions: 20 g a.i./ha, comparative experiment
Protocol: as §1, with “The example numbers given in the tables relate to the compounds disclosed in the respective documents.” left out

LOLRI [2] = test: Post-emergence herbicidal action; format: in vivo, Lolium rigidum; conditions: 20 g a.i./ha, comparative experiment
Protocol: as §1, with “The example numbers given in the tables relate to the compounds disclosed in the respective documents.” left out

ZEAMX [3] = test: Pre-emergence damage to crop plants; format: in vivo, Zea mays; conditions: 80 g a.i./ha, comparative experiment
Description: (§2) Seeds of monocotyledonous and dicotyledonous weed plants and crop plants are laid out in sandy loam soil in wood-fibre pots and covered with soil. The compounds of the invention, formulated in the form of wettable powders (WP) or as emulsion concentrates (EC), are then applied to the surface of the covering soil in the form of an aqueous suspension or emulsion at a water application rate equivalent to 600 to 800 l/ha, with addition of 0.2% wetting agent. After the treatment, the pots are placed in a greenhouse and kept under good growth conditions for the trial plants. The damage to the test plants is scored visually after a test period of 3 weeks by comparison with untreated controls (herbicidal activity in percent (%): 100% activity=the plants have died, 0% activity=like control plants). […] The tables below illustrate, in an illustrative manner, the post-emergence herbicidal action of the compounds of the invention, the herbicidal activity being stated in percent. In the experiments that follow, the herbicidal action of the compounds of the invention and that of the corresponding known racemic compounds closest from WO2012126932 and WO2018202535 were compared under the above-specified conditions by the pre-emergence and post-emergence method. The example numbers given in the tables relate to the compounds disclosed in the respective documents.

VERPE [4] = test: Post-emergence herbicidal action; format: in vivo, Veronica persica; conditions: 5 g a.i./ha, comparative experiment
Protocol: as §1

TRZAS = test: Post-emergence damage to crop plants; format: in vivo, Triticum aestiva; conditions: 20 g a.i./ha, comparative experiment
Protocol: as §1

ZEAMX [5] = test: Post-emergence damage to crop plants; format: in vivo, Zea mays; conditions: 20 g a.i./ha, comparative experiment
Protocol: as §1

ALOMY = test: Pre-emergence herbicidal action; format: in vivo, Alopecurus myosuroides; conditions: for Herbicidal action against ALOMY: 20 g a.i./ha, comparative experiment; for Pre-emergence action against ALOMY: scored after 3 weeks
Description: as §2

GLXMA = test: Pre-emergence damage to crop plants; format: in vivo, Glycine max; conditions: comparative experiment
Description: as §2

LOLRI [6] = test: Pre-emergence herbicidal action; format: in vivo, Lolium rigidum; conditions: for Herbicidal action against LOLRI: 20 g a.i./ha, comparative experiment
Description: as §2

AVEFA = test: Pre-emergence herbicidal action; format: in vivo, Avena fatua; conditions: for Herbicidal action against AVEFA: 20 g a.i./ha, comparative experiment
Description: as §2

DIGSA [7] = test: Pre-emergence herbicidal action; format: in vivo, Digitaria sanguinalis; conditions: scored after 3 weeks
Description: as §2, with “percent.” for “percent. In the experiments that follow, the herbicidal action of the compounds of the invention and that of the corresponding known racemic compounds closest from WO2012126932 and WO2018202535 were compared under the above-specified conditions by the pre-emergence and post-emergence method. The example numbers given in the tables relate to the compounds disclosed in the respective documents.”

POLCO = test: Pre-emergence herbicidal action; format: in vivo, Polygonum convolvulus; conditions: 80 g/ha, scored after 3 weeks
Description: as §2

VIOTR = test: Pre-emergence herbicidal action; format: in vivo, Viola tricolor; conditions: scored after 3 weeks
Description: as §2, with “percent.” for “percent. In the experiments that follow, the herbicidal action of the compounds of the invention and that of the corresponding known racemic compounds closest from WO2012126932 and WO2018202535 were compared under the above-specified conditions by the pre-emergence and post-emergence method. The example numbers given in the tables relate to the compounds disclosed in the respective documents.”

SETVI [8] = test: Post-emergence herbicidal action; format: in vivo, Setaria viridis; conditions: assessed after about 3 weeks
Protocol: as §1

ECHCG [9] = test: Post-emergence herbicidal action; format: in vivo, Echinochloa crus-galli; conditions: 20 g/ha, assessed after about 3 weeks
Protocol: as §1

MATIN [10] = test: Post-emergence herbicidal action; format: in vivo, Matricaria inodora; conditions: 20 g/ha, assessed after about 3 weeks
Protocol: as §1, with “percent.” for “percent. In the experiments that follow, the herbicidal action of the compounds of the invention and that of the corresponding known racemic compounds closest from WO2012126932 and WO2018202535 were compared under the above-specified conditions by the pre-emergence and post-emergence method. The example numbers given in the tables relate to the compounds disclosed in the respective documents.”

MATIN [11] = test: Pre-emergence herbicidal action; format: in vivo, Matricaria inodora; conditions: scored after 3 weeks
Description: as §2

AMARE [12] = test: Pre-emergence herbicidal action; format: in vivo, Amaranthus retroflexus; conditions: scored after 3 weeks
Description: as §2, with “percent.” for “percent. In the experiments that follow, the herbicidal action of the compounds of the invention and that of the corresponding known racemic compounds closest from WO2012126932 and WO2018202535 were compared under the above-specified conditions by the pre-emergence and post-emergence method. The example numbers given in the tables relate to the compounds disclosed in the respective documents.”

SETVI [13] = test: Pre-emergence herbicidal action; format: in vivo, Setaria viridis; conditions: scored after 3 weeks
Description: as §2

VERPE [14] = test: Pre-emergence herbicidal action; format: in vivo, Veronica persica; conditions: 80 g/ha, scored after 3 weeks
Description: as §2

ECHCG [15] = test: Pre-emergence herbicidal action; format: in vivo, Echinochloa crus-galli; conditions: 80 g/ha, scored after 3 weeks
Description: as §2, with “percent.” for “percent. In the experiments that follow, the herbicidal action of the compounds of the invention and that of the corresponding known racemic compounds closest from WO2012126932 and WO2018202535 were compared under the above-specified conditions by the pre-emergence and post-emergence method. The example numbers given in the tables relate to the compounds disclosed in the respective documents.”

AMARE [16] = test: Post-emergence herbicidal action; format: in vivo, Amaranthus retroflexus; conditions: assessed after about 3 weeks
Protocol: as §1, with “percent.” for “percent. In the experiments that follow, the herbicidal action of the compounds of the invention and that of the corresponding known racemic compounds closest from WO2012126932 and WO2018202535 were compared under the above-specified conditions by the pre-emergence and post-emergence method. The example numbers given in the tables relate to the compounds disclosed in the respective documents.”

With `Cc1nnc(NC(=O)c2ccc(C(F)(F)F)c([S+]([O-])C3CC3)c2Cl)o1` (racemic) [Racemate known from WO2012126932, 2-chloro-N-(5-methyl-1,3,4-oxadiazol-2-yl)-3-[(rac)-cyclopropylsulfinyl]-4-(trifluoromethyl)benzamide, reference compound] the “Herbicidal action against DIGSA” value (DIGSA [1]) was 80%, the “Damage to BRSNW” value (BRSNW) was 100% and the “Herbicidal action against LOLRI” value (LOLRI [2]) was 30%. The “Damage to ZEAMX” value (ZEAMX [3]) was 70%, the “Herbicidal action against VERPE” value (VERPE [4]) was 40% and the “Damage to TRZAS” value (TRZAS) was 40%. The “Damage to ZEAMX” value (ZEAMX [5]) was 20%, the “Herbicidal action against ALOMY” value (ALOMY) was 0% and the “Damage to GLXMA” value (GLXMA; 20 g a.i./ha) was 60%. The “Damage to GLXMA” value (GLXMA; 80 g a.i./ha) was 100%, the “Herbicidal action against LOLRI” value (LOLRI [6]) was 0% and the “Herbicidal action against AVEFA” value (AVEFA) was 0%.
In the case of `Cc1nnc(NC(=O)c2ccc(C(F)(F)F)c([S+]([O-])C3CC3)c2Cl)o1` (stereo in doubt) [Example I-4, 2-chloro-N-(5-methyl-1,3,4-oxadiazol-2-yl)-3-[(S)-cyclopropylsulfinyl]-4-(trifluoromethyl)benzamide], the “Post-emergence action against DIGSA” value (DIGSA [1]; 5 g/ha) is reported as 90%, the “Herbicidal action against DIGSA” value (DIGSA [1]) is reported as 100% and the “Post-emergence action against DIGSA” value (DIGSA [1]; 20 g/ha) is reported as 100%. For the same compound, the “Pre-emergence action against DIGSA” value (DIGSA [7]; 20 g/ha) was 100%, the “Pre-emergence action against DIGSA” value (DIGSA [7]; 80 g/ha) was 100% and the “Damage to BRSNW” value (BRSNW) was 80%. For the same compound, the “Pre-emergence action against POLCO” value (POLCO) was 80%, the “Pre-emergence action against VIOTR” value (VIOTR; 20 g/ha) was 100% and the “Pre-emergence action against VIOTR” value (VIOTR; 80 g/ha) was 100%. For the same compound, the “Herbicidal action against LOLRI” value (LOLRI [2]) was 60%, the “Post-emergence action against SETVI” value (SETVI [8]; 5 g/ha) was 100% and the “Post-emergence action against SETVI” value (SETVI [8]; 20 g/ha) was 100%. The “Post-emergence action against ECHCG” value (ECHCG [9]) was 90%, the “Damage to ZEAMX” value (ZEAMX [3]) was 50% and the “Post-emergence action against MATIN” value (MATIN [10]) was 80%. The “Pre-emergence action against MATIN” value (MATIN [11]; 20 g/ha) was 80%, the “Pre-emergence action against MATIN” value (MATIN [11]; 80 g/ha) was 100% and the “Herbicidal action against VERPE” value (VERPE [4]) was 60%. For the same compound, the “Damage to TRZAS” value (TRZAS) was 20%, the “Damage to ZEAMX” value (ZEAMX [5]) was 0% and the “Herbicidal action against ALOMY” value (ALOMY) was 80%. The “Pre-emergence action against ALOMY” value (ALOMY; 20 g/ha) was 80%, the “Pre-emergence action against ALOMY” value (ALOMY; 80 g/ha) was 100% and the “Damage to GLXMA” value (GLXMA; 20 g a.i./ha) was 40%. For the same compound, the “Damage to GLXMA” value (GLXMA; 80 g a.i./ha) was 80%, the “Pre-emergence action against AMARE” value (AMARE [12]; 20 g/ha) was 100% and the “Pre-emergence action against AMARE” value (AMARE [12]; 80 g/ha) was 100%. For the same compound, the “Pre-emergence action against SETVI” value (SETVI [13]; 20 g/ha) was 100%, the “Pre-emergence action against SETVI” value (SETVI [13]; 80 g/ha) was 100% and the “Pre-emergence action against VERPE” value (VERPE [14]) was 100%. For the same compound, the “Pre-emergence action against ECHCG” value (ECHCG [15]) was 100%, the “Herbicidal action against LOLRI” value (LOLRI [6]) was 50% and the “Pre-emergence action against LOLRI” value (LOLRI [6]; 80 g/ha, scored after 3 weeks) was 80%. For the same compound, the “Post-emergence action against AMARE” value (AMARE [16]; 5 g/ha) was 100%, the “Post-emergence action against AMARE” value (AMARE [16]; 20 g/ha) was 100% and the “Herbicidal action against AVEFA” value (AVEFA) was 30%. The “Pre-emergence action against AVEFA” value (AVEFA; 80 g/ha, scored after 3 weeks) was 90%.

— US20240174624A1, “CHIRAL N-(1,3,4-OXADIAZOLE-2-YL)PHENYL CARBOXYLIC ACID AMIDES AND THEIR USE AS HERBICIDES” (Bayer Aktiengesellschaft, priority 2021, published 2024)
